According to paper PMC9090415, “Discovery of small molecule inhibitors of Plasmodium falciparum apicoplast DNA polymerase” (Journal of Enzyme Inhibition and Medicinal Chemistry, 2022):

Target: P. falciparum apicoplast DNA polymerase (Pf-apPOL) (Plasmodium falciparum, UniProt Q8ILY1)
Test: Fluorescence-based high-throughput DNA polymerase assay (molecular beacon), primary screen and dose-response
Format: biochemical
Summary of the method: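 Single-point screening used 10 µM compound with 20 nM polymerase, 20 nM hairpin substrate and 6 µM dNTPs for 90 min at 25 °C. Confirmatory titrations (2.5–80 µM) followed fluorescence at three times, and IC50 was derived from a fit including a cooperativity term n.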

[1] = supplemental file 2, sheet IC50 nontoxic compounds; Pf-apPOL

Chain of P. falciparum apicoplast DNA polymerase (Pf-apPOL) (Q8ILY1 entry or part of it): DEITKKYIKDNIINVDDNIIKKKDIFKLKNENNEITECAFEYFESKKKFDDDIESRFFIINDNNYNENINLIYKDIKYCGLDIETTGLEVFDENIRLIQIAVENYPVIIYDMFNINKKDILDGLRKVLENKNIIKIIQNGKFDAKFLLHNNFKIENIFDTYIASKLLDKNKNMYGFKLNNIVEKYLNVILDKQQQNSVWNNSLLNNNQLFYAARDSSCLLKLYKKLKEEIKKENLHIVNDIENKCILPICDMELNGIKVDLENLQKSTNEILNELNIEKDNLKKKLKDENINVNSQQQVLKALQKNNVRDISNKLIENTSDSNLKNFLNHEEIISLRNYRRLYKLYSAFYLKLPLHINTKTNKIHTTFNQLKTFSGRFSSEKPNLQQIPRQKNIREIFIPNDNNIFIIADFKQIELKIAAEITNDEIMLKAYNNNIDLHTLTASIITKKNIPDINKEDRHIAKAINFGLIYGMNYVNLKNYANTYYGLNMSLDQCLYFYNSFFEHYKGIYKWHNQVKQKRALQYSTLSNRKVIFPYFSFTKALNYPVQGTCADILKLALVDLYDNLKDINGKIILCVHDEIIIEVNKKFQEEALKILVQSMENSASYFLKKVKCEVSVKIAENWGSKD

CC(C)(C)OC(=O)COc1ccc2cc(-c3ccccc3)c(=O)oc2c1 [Molecule 81]
IC50 [1]: 35 µM

COc1ccc(NC(=O)Cn2ccc3c(=O)[nH]ccc32)cc1 [Molecule 13]
IC50 [1]: 7.09 µM

CCSc1nnc(NC(=O)Cc2csc(NC(=O)c3cnccn3)n2)s1 [Molecule 79, CCSc1nnc(s1)NC(=O)Cc1csc(n1)NC(=O)c1cnccn1]
DNA Pol ('DNA Pol'; screening value, unit not given; 90 min, 10 µM): 44 | % inhibition Apo pol 10' (DRC-1; 10'; concentration 2.5): -4.905% | % inhibition Apo pol 10' (DRC-1; 10'; concentration 5): -2.236% | % inhibition Apo pol 10' (DRC-1; 10'; concentration 10): 11.7558% | % inhibition Apo pol 10' (DRC-1; 10'; concentration 20): 21.8429% | % inhibition Apo pol 10' (DRC-1; 10'; concentration 40): 42.6087% | % inhibition Apo pol 10' (DRC-1; 10'; concentration 80): 77.5256% | % inhibition Apol 90' (DRC-1; 90'; concentration 2.5): -9.3965% | % inhibition Apol 90' (DRC-1; 90'; concentration 5): -9.701% | % inhibition Apol 90' (DRC-1; 90'; concentration 10): -1.729% | % inhibition Apol 90' (DRC-1; 90'; concentration 20): 6.401% | % inhibition Apol 90' (DRC-1; 90'; concentration 40): 23.3518% | % inhibition Apol 90' (DRC-1; 90'; concentration 80): 61.199% | % inhibition apPOL 180' (DRC-1; 180'; concentration 2.5): -15.2579% | % inhibition apPOL 180' (DRC-1; 180'; concentration 5): -16.9778% | % inhibition apPOL 180' (DRC-1; 180'; concentration 10): -10.4775% | % inhibition apPOL 180' (DRC-1; 180'; concentration 20): -5.476% | % inhibition apPOL 180' (DRC-1; 180'; concentration 40): 8.736% | % inhibition apPOL 180' (DRC-1; 180'; concentration 80): 42.542% | % inhibition Apo pol 5' (DRC-2, 5', concentration 2.5): 1.36% | % inhibition Apo pol 5' (DRC-2, 5', concentration 5): 13% | % inhibition Apo pol 5' (DRC-2, 5', concentration 10): 30% | % inhibition Apo pol 5' (DRC-2, 5', concentration 20): 43% | % inhibition Apo pol 5' (DRC-2, 5', concentration 40): 55% | % inhibition Apo pol 5' (DRC-2, 5', concentration 80): 62% | % inhibition Apol 40' (DRC-2, 40', concentration 2.5): -2.42% | % inhibition Apol 40' (DRC-2, 40', concentration 5): 7% | % inhibition Apol 40' (DRC-2, 40', concentration 10): 25% | % inhibition Apol 40' (DRC-2, 40', concentration 20): 40% | % inhibition Apol 40' (DRC-2, 40', concentration 40): 62% | % inhibition Apol 40' (DRC-2, 40', concentration 80): 76% | % inhibition ApPOL 90' (DRC-2, 90', concentration 2.5): -4.46% | % inhibition ApPOL 90' (DRC-2, 90', concentration 5): 5% | % inhibition ApPOL 90' (DRC-2, 90', concentration 10): 22% | % inhibition ApPOL 90' (DRC-2, 90', concentration 20): 35% | % inhibition ApPOL 90' (DRC-2, 90', concentration 40): 62% | % inhibition ApPOL 90' (DRC-2, 90', concentration 80): 79% | % inhibition apPOL 180' (DRC-2, 180', concentration 2.5): -6% | % inhibition apPOL 180' (DRC-2, 180', concentration 5): 1.68% | % inhibition apPOL 180' (DRC-2, 180', concentration 10): 14% | % inhibition apPOL 180' (DRC-2, 180', concentration 20): 26% | % inhibition apPOL 180' (DRC-2, 180', concentration 40): 59% | % inhibition apPOL 180' (DRC-2, 180', concentration 80): 81% | % inhibition Apol 40' (conc 40 (unit not given); 40'; DRC-2): 62% | % inhibition ApPOL 90' (conc 40 (unit not given); 90'; DRC-2): 62% | % inhibition Apo pol 5' (conc 80 (unit not given); 5'; DRC-2): 62% | DNA Pol (primary screen hit value, DNA Pol (186 hits); 90 min, 10 µM): 44

CCOc1nc2cccc(C(=O)OC(C)OC(=O)OC3CCCCC3)c2n1Cc1ccc(-c2ccccc2-c2nn[nH]n2)cc1 (centres unmarked) [Molecule 94, CCOc1nc2c(n1Cc1ccc(cc1)c1ccccc1c1n[nH]nn1)c(ccc2)C(=O)OC(OC(=O)OC1CCCCC1)C]
DNA Pol ('DNA Pol' of the 186 hits list (screen value); 90 min, 10 µM): 88 | % inhibition Apo pol 10' (DRC-1; 10'; conc 2.5): 6.803% | % inhibition Apo pol 10' (DRC-1; 10'; conc 5): 16.1591% | % inhibition Apo pol 10' (DRC-1; 10'; conc 10): 73.0339% | % inhibition Apo pol 10' (DRC-1; 10'; conc 20): 91.1% | % inhibition Apo pol 10' (DRC-1; 10'; conc 40): 96.7244% | % inhibition Apo pol 10' (DRC-1; 10'; conc 80): 98.4846% | % inhibition Apol 90' (DRC-1; 90'; conc 2.5): 4.826% | % inhibition Apol 90' (DRC-1; 90'; conc 5): 16.7075% | % inhibition Apol 90' (DRC-1; 90'; conc 10): 71.8878% | % inhibition Apol 90' (DRC-1; 90'; conc 20): 89.9299% | % inhibition Apol 90' (DRC-1; 90'; conc 40): 93.9408% | % inhibition Apol 90' (DRC-1; 90'; conc 80): 94.456% | % inhibition apPOL 180' (DRC-1; 180'; conc 2.5): 1.0757% | % inhibition apPOL 180' (DRC-1; 180'; conc 5): 11.5491% | % inhibition apPOL 180' (DRC-1; 180'; conc 10): 64.6519% | % inhibition apPOL 180' (DRC-1; 180'; conc 20): 87.4687% | % inhibition apPOL 180' (DRC-1; 180'; conc 40): 92.7393% | % inhibition apPOL 180' (DRC-1; 180'; conc 80): 93.1007% | % inhibition Apo pol 5' (DRC-2; 5'; conc 2.5): 8% | % inhibition Apo pol 5' (DRC-2; 5'; conc 5): 14% | % inhibition Apo pol 5' (DRC-2; 5'; conc 10): 46% | % inhibition Apo pol 5' (DRC-2; 5'; conc 20): 55% | % inhibition Apo pol 5' (DRC-2; 5'; conc 40): 61% | % inhibition Apo pol 5' (DRC-2; 5'; conc 80): 61% | % inhibition Apo pol 5' (DRC-2; 5'; concentration 5): 14% | % inhibition Apo pol 5' (DRC-2; 5'; concentration 40): 61% | % inhibition Apo pol 5' (DRC-2; 5'; concentration 80): 61% | % inhibition Apol 40' (DRC-2; 40'; conc 2.5): 11% | % inhibition Apol 40' (DRC-2; 40'; conc 5): 19% | % inhibition Apol 40' (DRC-2; 40'; conc 10): 59% | % inhibition Apol 40' (DRC-2; 40'; conc 20): 71% | % inhibition Apol 40' (DRC-2; 40'; conc 40): 74% | % inhibition Apol 40' (DRC-2; 40'; conc 80): 74% | % inhibition Apol 40' (DRC-2; 40'; concentration 5): 19% | % inhibition Apol 40' (DRC-2; 40'; concentration 10): 59% | % inhibition Apol 40' (DRC-2; 40'; concentration 40): 74% | % inhibition Apol 40' (DRC-2; 40'; concentration 80): 74% | % inhibition ApPOL 90' (DRC-2; 90'; conc 2.5): 9% | % inhibition ApPOL 90' (DRC-2; 90'; conc 5): 19% | % inhibition ApPOL 90' (DRC-2; 90'; conc 10): 59% | % inhibition ApPOL 90' (DRC-2; 90'; conc 20): 73% | % inhibition ApPOL 90' (DRC-2; 90'; conc 40): 77% | % inhibition ApPOL 90' (DRC-2; 90'; conc 80): 77% | % inhibition ApPOL 90' (DRC-2; 90'; concentration 5): 19% | % inhibition ApPOL 90' (DRC-2; 90'; concentration 10): 59% | % inhibition ApPOL 90' (DRC-2; 90'; concentration 40): 77% | % inhibition ApPOL 90' (DRC-2; 90'; concentration 80): 77% | % inhibition apPOL 180' (DRC-2; 180'; conc 2.5): 4.45% | % inhibition apPOL 180' (DRC-2; 180'; conc 5): 14% | % inhibition apPOL 180' (DRC-2; 180'; conc 10): 53% | % inhibition apPOL 180' (DRC-2; 180'; conc 20): 69% | % inhibition apPOL 180' (DRC-2; 180'; conc 40): 75% | % inhibition apPOL 180' (DRC-2; 180'; conc 80): 75% | % inhibition apPOL 180' (DRC-2; 180'; concentration 5): 14% | % inhibition apPOL 180' (DRC-2; 180'; concentration 40): 75% | % inhibition apPOL 180' (DRC-2; 180'; concentration 80): 75% | DNA Pol (primary screen value, "DNA Pol"; 90 min, 10 µM): 88
